The text below walks through data of ChEMBL document CHEMBL2390817, “Structure-activity relationship of human glutaminyl cyclase inhibitors having an N-(5-methyl-1H-imidazol-1-yl)propyl thiourea template” (Bioorg Med Chem, 2013).

Molecules are shown by their SMILES.

The target in this test is Glutaminyl-peptide cyclotransferase (Homo sapiens, UniProt Q16769). Kind of test: Inhibition of human glutaminyl cyclase expressed in HEK293 cells using L-glutaminyl-beta-naphthylamine as substrate after 1 hr by fluorometric analysis.
Chain of Glutaminyl-peptide cyclotransferase (Q16769 whole entry): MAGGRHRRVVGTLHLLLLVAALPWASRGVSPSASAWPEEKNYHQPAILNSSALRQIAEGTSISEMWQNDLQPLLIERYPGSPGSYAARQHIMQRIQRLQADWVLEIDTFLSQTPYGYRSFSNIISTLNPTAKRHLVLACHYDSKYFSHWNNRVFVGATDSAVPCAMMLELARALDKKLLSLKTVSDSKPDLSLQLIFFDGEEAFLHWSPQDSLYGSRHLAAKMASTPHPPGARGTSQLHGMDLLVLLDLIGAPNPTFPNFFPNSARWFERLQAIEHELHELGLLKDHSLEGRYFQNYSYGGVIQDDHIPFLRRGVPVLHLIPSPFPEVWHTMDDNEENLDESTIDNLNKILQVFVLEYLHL
For the molecule `Cc1cncn1CCCNC(=S)Nc1ccc2cnccc2c1`, the IC50 result is reported as “Active”.

`Cc1cncn1CCCNC(=S)Nc1cccc2cccnc12`: the IC50 entry was “Active”.

With `Cc1cncn1CCCNC(=S)Nc1cccnc1`, the IC50 entry is listed as “Active”.

Consider `Cc1cncn1CCCNC(=S)Nc1cnc2ccccc2c1`, for which the IC50 result is “Active”.

As for `Cc1cncn1CCCNC(=S)Nc1cccc2c1OCCO2`, the IC50 result is recorded as “Not Active”.

As to `Cc1cncn1CCCNC(=S)Nc1ccc2cc[nH]c2c1`, the IC50 result is recorded as “Active”.

In the case of `Cc1cncn1CCCNC(=S)Nc1ccc2c(c1)CCC2`, the IC50 entry is “Active”.
